Laboratory results published in US20170232083A1, “METHODS OF DIAGNOSIS AND TREATMENT OF CELIAC DISEASE IN CHILDREN” (priority 2014, published 2017).

System: PBMC (polyclonal gluten-specific T cells) of paediatric and adult CD patients
Assay: IFN-γ ELISpot of PBMC after 3 day oral wheat challenge (SFU, % of maximal peptide response, dominance scores, EC50; Examples 5-6)
Type: cell-based, human
Details: for Cross-reactive T cell response: following wheat challenge; for IFN-γ ELISpot response: after oral wheat challenge
[1] = subject I (3-5yrs/6-10yrs part)
[2] = subject J (3-5yrs/6-10yrs part)
[3] = subject K (3-5yrs/6-10yrs part)
[4] = subject V (3-5yrs/6-10yrs part)
[5] = subject W (3-5yrs/6-10yrs part)
[6] = subject Y (3-5yrs/6-10yrs part)
[7] = subject five (3-5yrs/6-10yrs part)
[8] = subject seven (3-5yrs/6-10yrs part)
[9] = subject six (3-5yrs/6-10yrs part)
[10] = subject ten (3-5yrs/6-10yrs part)
[11] = subject two (3-5yrs/6-10yrs part)
[12] = patient A, 11-17 yrs, cut-off 10 SFU
[13] = patient E, H, 11-17 yrs, cut-off 10 SFU
[14] = patient F, 11-17 yrs, cut-off 10 SFU
[15] = patient G, 11-17 yrs, cut-off 10 SFU
[16] = patient H (HLA-DQ2.5 homozygote), 3-5yrs, cut-off 10 SFU
[17] = patient H, 11-17 yrs, cut-off 10 SFU
[18] = patient ID not given, 11-17 yrs, cut-off 10 SFU
[19] = patient ID not given, max peptide 95 SFU
[20] = patient N, 3-5yrs, cut-off 10 SFU
[21] = patient P, 11-17 yrs, cut-off 21.6 SFU
[22] = patient Q, 11-17 yrs, cut-off 10 SFU
[23] = patient U, H, 11-17 yrs, cut-off 10 SFU
[24] = patient V, 6-10 yrs, cut-off 10 SFU
[25] = patient Y, 6-10 yrs, cut-off 10 SFU
[26] = patient eleven, 6-10 yrs, cut-off 10 SFU
[27] = patient five, max peptide 48 SFU
[28] = patient four, 3-5yrs, cut-off 10 SFU
[29] = patient seven, 6-10 yrs, cut-off 10.5 SFU
[30] = patient ten, 3-5yrs, cut-off 10 SFU
[31] = patient three, 6-10 yrs, cut-off 10.5 SFU
[32] = patient twelve, 11-17 yrs, cut-off 10 SFU
[33] = patient two, 3-5yrs, cut-off 10 SFU

## QPFPQPEQPFSWQ
Subject A, 11-17yrs
  Cross-reactive T cell response: 0 SFU
Subject D, 11-17yrs
  Significant response as a percentage of maximal peptide SFU: ′′′ (41-70% = ′′′)
  Cross-reactive T cell response: 16 SFU
Subject E, 11-17yrs
  Significant response as a percentage of maximal peptide SFU: ′ (11-20% = ′)
  Cross-reactive T cell response: 34 SFU
Subject F, 11-17yrs
  Significant response as a percentage of maximal peptide SFU: ′ (11-20% = ′)
  Cross-reactive T cell response: 19 SFU
Subject G, 11-17yrs
  Cross-reactive T cell response: 6 SFU
Subject H
  Cross-reactive T cell response: 1 SFU
[1]
  Cross-reactive T cell response: 2 SFU
Subject J
  Significant response as a percentage of maximal peptide SFU: ′′′ (41-70% = ′′′)
[2]
  Cross-reactive T cell response: 79 SFU
Subject K
  Significant response as a percentage of maximal peptide SFU: ′′ (21-40% = ′′)
[3]
  Cross-reactive T cell response: 20 SFU
Subject P, 11-17yrs
  Cross-reactive T cell response: 14 SFU
Subject Q, 11-17yrs
  Significant response as a percentage of maximal peptide SFU: ′′ (21-40% = ′′)
  Cross-reactive T cell response: 29 SFU
Subject T, 11-17yrs
  Significant response as a percentage of maximal peptide SFU: ′′′ (41-70% = ′′′)
  Cross-reactive T cell response: 41 SFU
Subject U, 11-17yrs
  Significant response as a percentage of maximal peptide SFU: ′′ (21-40% = ′′)
  Cross-reactive T cell response: 18 SFU
Subject V
  Significant response as a percentage of maximal peptide SFU: + (>70% = +)
[4]
  Cross-reactive T cell response: 25 SFU
[5]
  Cross-reactive T cell response: 3 SFU
[6]
  Cross-reactive T cell response: 8 SFU
Subject five
  Significant response as a percentage of maximal peptide SFU: + (>70% = +)
[7]
  Cross-reactive T cell response: 42 SFU
Subject nine, 11-17yrs
  Cross-reactive T cell response: 1 SFU
[8]
  Cross-reactive T cell response: 6 SFU
[9]
  Cross-reactive T cell response: 8 SFU
[10]
  Cross-reactive T cell response: 0 SFU
Subject two
  Significant response as a percentage of maximal peptide SFU: ′′ (21-40% = ′′)
[11]
  Cross-reactive T cell response: 26 SFU

## PFPEQPEQPYPQQ
[12]
  IFN-γ ELISpot response: 0 SFU
[13]
  IFN-γ ELISpot response: 14 SFU
Patient E, max peptide 224 SFU
  Significant response as percentage of maximal peptide SFU: (6-10% = ^)
[14]
  IFN-γ ELISpot response: 8 SFU
[15]
  IFN-γ ELISpot response: 1 SFU
[16]
  IFN-γ ELISpot response: 11 SFU
[17]
  IFN-γ ELISpot response: 1 SFU
[18]
  IFN-γ ELISpot response: 14 SFU
[19]
  Significant response as percentage of maximal peptide SFU: ′ (11-20% = ′)
Patient II, max peptide 15 SFU
  Significant response as percentage of maximal peptide SFU: + (>70% = +)
Patient M, max peptide 48 SFU
  Significant response as percentage of maximal peptide SFU: ′ (11-20% = ′)
[20]
  IFN-γ ELISpot response: 1 SFU
[21]
  IFN-γ ELISpot response: 15 SFU
[22]
  IFN-γ ELISpot response: 19 SFU
Patient Q, max peptide 97 SFU
  Significant response as percentage of maximal peptide SFU: ′ (11-20% = ′)
[23]
  IFN-γ ELISpot response: 2 SFU
[24]
  IFN-γ ELISpot response: 7 SFU
[25]
  IFN-γ ELISpot response: 5 SFU
[26]
  IFN-γ ELISpot response: 3 SFU
[27]
  Significant response as percentage of maximal peptide SFU: ′′ (21-40% = ′′)
[28]
  IFN-γ ELISpot response: 4 SFU
[29]
  IFN-γ ELISpot response: 3 SFU
[30]
  IFN-γ ELISpot response: 5 SFU
[31]
  IFN-γ ELISpot response: 9 SFU
[32]
  IFN-γ ELISpot response: 2 SFU
[33]
  IFN-γ ELISpot response: 6 SFU

## GQSGYYPTSPQQS
[12]
  IFN-γ ELISpot response: 5 SFU
[13]
  IFN-γ ELISpot response: 0 SFU
[14]
  IFN-γ ELISpot response: 10 SFU
Patient F, max peptide 178 SFU
  Significant response as percentage of maximal peptide SFU: (6-10% = ^)
[15]
  IFN-γ ELISpot response: 1 SFU
[16]
  IFN-γ ELISpot response: 2 SFU
[17]
  IFN-γ ELISpot response: 4 SFU
[18]
  IFN-γ ELISpot response: 1 SFU
Patient II, max peptide 15 SFU
  Significant response as percentage of maximal peptide SFU: + (>70% = +)
[20]
  IFN-γ ELISpot response: 0 SFU
[21]
  IFN-γ ELISpot response: 10 SFU
[22]
  IFN-γ ELISpot response: 5 SFU
[23]
  IFN-γ ELISpot response: 4 SFU
[24]
  IFN-γ ELISpot response: 3 SFU
[25]
  IFN-γ ELISpot response: 0 SFU
[26]
  IFN-γ ELISpot response: 4 SFU
[28]
  IFN-γ ELISpot response: 3 SFU
[29]
  IFN-γ ELISpot response: 11 SFU
Patient seven, max peptide 27 SFU
  Significant response as percentage of maximal peptide SFU: ′′′ (41-70% = ′′′)
[30]
  IFN-γ ELISpot response: 5 SFU
[31]
  IFN-γ ELISpot response: 6 SFU
[32]
  IFN-γ ELISpot response: 2 SFU
[33]
  IFN-γ ELISpot response: 2 SFU

## QPFPQPEQPFPLQ
Subject A, 11-17yrs
  Cross-reactive T cell response: 5 SFU
Subject D, 11-17yrs
  Significant response as a percentage of maximal peptide SFU: ′′′ (41-70% = ′′′)
  Cross-reactive T cell response: 16 SFU
Subject E, 11-17yrs
  Significant response as a percentage of maximal peptide SFU: ′′ (21-40% = ′′)
  Cross-reactive T cell response: 70 SFU
Subject F, 11-17yrs
  Significant response as a percentage of maximal peptide SFU: ′′ (21-40% = ′′)
  Cross-reactive T cell response: 64 SFU
Subject G, 11-17yrs
  Significant response as a percentage of maximal peptide SFU: ′′′ (41-70% = ′′′)
  Cross-reactive T cell response: 10 SFU
Subject H
  Cross-reactive T cell response: 4 SFU
Subject I
  Significant response as a percentage of maximal peptide SFU: + (>70% = +)
[1]
  Cross-reactive T cell response: 13 SFU
Subject J
  Significant response as a percentage of maximal peptide SFU: ′′′ (41-70% = ′′′)
[2]
  Cross-reactive T cell response: 88 SFU
Subject K
  Significant response as a percentage of maximal peptide SFU: ′′′ (41-70% = ′′′)
[3]
  Cross-reactive T cell response: 29 SFU
Subject P, 11-17yrs
  Cross-reactive T cell response: 21 SFU
Subject Q, 11-17yrs
  Significant response as a percentage of maximal peptide SFU: + (>70% = +)
  Cross-reactive T cell response: 83 SFU
Subject T, 11-17yrs
  Significant response as a percentage of maximal peptide SFU: + (>70% = +)
  Cross-reactive T cell response: 94 SFU
Subject U, 11-17yrs
  Significant response as a percentage of maximal peptide SFU: ′′ (21-40% = ′′)
  Cross-reactive T cell response: 18 SFU
Subject V
  Significant response as a percentage of maximal peptide SFU: ′′′ (41-70% = ′′′)
[4]
  Cross-reactive T cell response: 22 SFU
[5]
  Cross-reactive T cell response: 8 SFU
[6]
  Cross-reactive T cell response: 9 SFU
Subject five
  Significant response as a percentage of maximal peptide SFU: + (>70% = +)
[7]
  Cross-reactive T cell response: 45 SFU
Subject nine, 11-17yrs
  Cross-reactive T cell response: 0 SFU
[8]
  Cross-reactive T cell response: 6 SFU
Subject six
  Significant response as a percentage of maximal peptide SFU: + (>70% = +)
[9]
  Cross-reactive T cell response: 12 SFU
Subject ten
  Significant response as a percentage of maximal peptide SFU: + (>70% = +)
[10]
  Cross-reactive T cell response: 13 SFU
Subject two
  Significant response as a percentage of maximal peptide SFU: + (>70% = +)
[11]
  Cross-reactive T cell response: 65 SFU

## QPFPQPQQPFSQQ
[12]
  IFN-γ ELISpot response: 9 SFU
[13]
  IFN-γ ELISpot response: 16 SFU
Patient E, max peptide 224 SFU
  Significant response as percentage of maximal peptide SFU: (6-10% = ^)
[14]
  IFN-γ ELISpot response: 12 SFU
Patient F, max peptide 178 SFU
  Significant response as percentage of maximal peptide SFU: (6-10% = ^)
[15]
  IFN-γ ELISpot response: 1 SFU
[16]
  IFN-γ ELISpot response: 13 SFU
[17]
  IFN-γ ELISpot response: 2 SFU
[18]
  IFN-γ ELISpot response: 30 SFU
[19]
  Significant response as percentage of maximal peptide SFU: ′′ (21-40% = ′′)
Patient II, max peptide 15 SFU
  Significant response as percentage of maximal peptide SFU: + (>70% = +)
Patient J, max peptide 196 SFU
  Significant response as percentage of maximal peptide SFU: (6-10% = ^)
Patient K, max peptide 53 SFU
  Significant response as percentage of maximal peptide SFU: ′′ (21-40% = ′′)
Patient M, max peptide 48 SFU
  Significant response as percentage of maximal peptide SFU: ′′ (21-40% = ′′)
[20]
  IFN-γ ELISpot response: 3 SFU
[21]
  IFN-γ ELISpot response: 10 SFU
[22]
  IFN-γ ELISpot response: 28 SFU
Patient Q, max peptide 97 SFU
  Significant response as percentage of maximal peptide SFU: ′′ (21-40% = ′′)
[23]
  IFN-γ ELISpot response: 22 SFU
Patient U, max peptide 81 SFU
  Significant response as percentage of maximal peptide SFU: ′′ (21-40% = ′′)
[24]
  IFN-γ ELISpot response: 5 SFU
[25]
  IFN-γ ELISpot response: 6 SFU
[26]
  IFN-γ ELISpot response: 1 SFU
[27]
  Significant response as percentage of maximal peptide SFU: ′′ (21-40% = ′′)
[28]
  IFN-γ ELISpot response: 12 SFU
Patient four, max peptide 44 SFU
  Significant response as percentage of maximal peptide SFU: ′′ (21-40% = ′′)
[29]
  IFN-γ ELISpot response: 6 SFU
[30]
  IFN-γ ELISpot response: 3 SFU
[31]
  IFN-γ ELISpot response: 13 SFU
[32]
  IFN-γ ELISpot response: 9 SFU
[33]
  IFN-γ ELISpot response: 9 SFU
